Measured values taken from US20230338463A1, “ICD PEPTIDE AND USE THEREOF FOR HAVING CYTOTOXIC ACTIVITY ON CANCER CELLS” (NATIONAL TSING HUA UNIVERSITY, priority 2022, published 2023).
Non-standard residues stand in square brackets, D forms with d. Residues, ends and D or L forms follow the SMILES beside them. 2Nal = N[C@@H](Cc1ccc2ccccc2c1)C(=O)O

Key:
[1] = system: CGNHC9 cells (oral squamous cell carcinoma); details: human, 24 h
Description: Three non-small cell lung cancer cell lines (H1975, A549, PC9) and two oral cancer cell lines (CGNHC9, OECM-1) were used in the present invention. H1975 is the non-small cell lung carcinoma tissue, A549 is the adenocarcinomic alveolar basal epithelial cells and PC9 is the non-small cell lung cancer with EGFR mutation. CGNHC9 and OECM-1 cell lines refer to oral squamous cell carcinoma and gingival epidermoid carcinoma respectively. The abovemetioned cell lines were derived from human origin and being cultured in the humidified incubator containing 5% CO2 at 37° C. CGNHC9 cell line was cultured in Dulbecco’s modified Eagle’s medium (GIBCO Life Technologies Corporation, NY, USA) with 10% fetal bovine serum (FBS), 2 mM L-glutamine and 1% penicillin/ streptomycin and Roswell Park Memorial Institute 1640 (RPMI 1640, GIBCO Life Technologies Corporation, NY, USA) medium with 10% fetal bovine serum (FBS), 2 mM L-glutamine and 1% penicillin/ streptomycin was used as the culture medium for the rest of the cell lines.
The anticancer activity of ICD peptides include, not limited, SEQ ID NO: 1 and its derivative peptides (SEQ ID NO: 2, SEQ ID NO: 3, SEQ ID NO: 4, and SEQ ID NO: 5) was using the 3-(4,5-Dimethyl-2-thiazolyl)-2,5-diphenyl-2H-tetrazolium bromide (MTT, Sigma Aldrich, St. Louis, MO, USA) colorimetric assay for cell viability test. The cells include, not limited, H1975, A549, PC9, CGNHC9, OECM-1, MN-11 and HFW cells/cell lines.
The cells were seeded in the 96-well plate at 5000 cells/well under the environment of humidified 5% CO2 and the temperature of 37° C. for 24 hours. The medium was removed from the well before the fresh medium containing different concentrations of ICD peptides was added and incubated for 24 hours. Medium with PBS solution was used as control group. All ICD peptides were diluted serially from 100 µM to 0.78 µM in ddH2O before adding in the medium. After 24 hours of ICD peptide treatment, fresh medium with 10% MTT solution (5 mg/mL) was incubated for additional 4 hours in advance of dissolving the formazan crystal in 100 µL DMSO (Dimethyl sulfoxide, Sigma Aldrich) solution. The calculation of cell survival rate was completed by measuring the absorbance at 570 nm using microplate reader (TECAN Sunrise ELISA Reader).
The cell survival was calculated from the treated cells relative to the control (100% viable cells) using the mean of three independent experiments and expressed as a 50% inhibitory concentration (IC50).
The percentage of cell viability was calculated using the following formula: […]
The half inhibition concentration (IC50) is the concentration required by the drug to reach fifty percent inhibition. In one embodiment, the SEQ ID NO: 1 and its derivative peptides (SEQ ID NO:2, SEQ ID NO:3, SEQ ID NO:4, SEQ ID NO: 5) was used for IC50 test via MTT colorimetric assay.

[2] = system: PC 9 cells; assay: Luciferin-luciferase extracellular ATP, PC 9; type: cell-based, human; details: PC 9, 2 × IC50, peak at 0.5 hour
Protocol: The ATP release from cancer cells were measured using the luciferin-luciferase assay as ATP release had been the iconic feature for immunogenic cell death (ICD).
PC 9 cells were seeded in the 96 well plate at the density of 10,000 cells/ well and allowed to adhere for 48 hours in the condition described previously for MTT assay. […] All of the three ICD peptides were dissolved in the serum-free RPMI 1640 medium for the cells’ treatment. Cells were treated with serum-free RPMI 1640 medium containing PBS as the control group. After being treated for 0.5, 1, 1.5, and 2 hours, the supernatant of cells was collected separately and stored at -20° C. before the ATP assay. The aliquot of reconstituted rL/L reagent in the ENLITEN ATP assay kit (Promega, Madison, WI, USA) was incubated at room temperature for one hour before using. The collected supernatant of the cells was centrifuged at the speed of 500 xg for 10 minutes and took out 100 µL of the supernatant into the black 96 well plate with clear bottom to avoid cross-talk between wells. […] Measurement of the extracellular ATP chemiluminescence was completed using the Wallac VICTOR 3 Multilabel plate reader (PerkinElmer, Shelton, CT, USA)

[3] = system: PC 9 cells; assay: Extracellular cytochrome c ELISA, PC 9; type: cell-based, human; details: PC 9, 2-fold IC50, time not stated
Protocol: The cytochrome c release was a part of mitochondrial damage-associated molecular patterns, therefore the amount of cytochrome c released into supernatant were measured by cytochrome c ELISA assay.
The cells were washed three times using PBS solution to remove all serum components and 1× 10^6 cells/ mL was solubilised in ice-cold 0.5% Triton-X 100-PBS solution at 2-8° C. for 10 minutes. Then, the speed of 16,000 xg was applied to centrifuge the extract for another 10 minutes, and serially dilute the aliquot of supernatant collected with Calibrator Diluent RD5-18 as described in the manufacturer’s protocol.
Quantifying the volume of cytochrome c released and the results were presented in FIGS. 7A-7C via ELISA assay for 0.5, 1, 1.5, and 2 hours. SEQ ID NO:4 group induced a relatively high amount of cytochrome c compared to SEQ ID NO:3 group and SEQ ID NO: 5 group. The cytochrome c release for SEQ ID NO:4 group was double the amount of SEQ ID NO:3 group and SEQ ID NO: 5 group. The trend of cytochrome c release in SEQ ID NO:4 and SEQ ID NO:3 treated PC 9 cells were escalating from 30 minutes to 4 hours, in contrast the SEQ ID NO: 5 group has fluctuating trend. […] The highest amount of cytochrome c detected in the supernatant for SEQ ID NO:3 and SEQ ID NO: 5 were around 3.5 ng/mL and lower than 2 ng/mL for the least.

[4] = system: MN-11 cells; assay: PI/Hoechst 33342 staining, plasma membrane integrity; type: cell-based, murine; details: MN-11, 2× IC50, 2 hrs, data not shown
Protocol: To examine the membrane-lytic activities of peptides, the PI/Hoechst 33342 staining was performed in this embodiment. The PI dye was used to stain damaged/dead cells, and Hoechst 33342 was used to specifically stain the nuclei of living cells. MN-11 cells were seeded at 50,000 cells/well in a RPMI medium and allowed to adhere for 24 hours. Then the cells were replaced with serum-free RPMI medium, and then treated with 2× IC50 peptides at 37° C. for 2 hrs. DMEM medium without peptide was used as negative control. The PI and Hoechst 33342 were added at a final concentration of 1 µg/ml for 20 mins. The cells were observed using the inverted fluorescent microscope Zeiss equipped with a 40× oil objective lens (Carl Zeiss, Germany). The experiments were repeated three times independently
To examine the membrane-lytic activities of Nal-P-113, Bip-P-113, and Dip-P-113, the DNA binding fluorescent dye Propidium iodide (PI) was used to stain damaged/dead cells, and Hoechst 33342 was used to specifically stain the nuclei of living cells.

With `CC(=O)N[C@@H](C)C(=O)N[C@@H](CCCCN)C(=O)N[C@@H](CCCNC(=N)N)C(=O)N[C@@H](Cc1ccc2ccccc2c1)C(=O)N[C@@H](Cc1ccc2ccccc2c1)C(=O)NCC(=O)N[C@@H](Cc1ccc(O)cc1)C(=O)N[C@@H](CCCCN)C(=O)N[C@@H](CCCNC(=N)N)C(=O)N[C@@H](CCCCN)C(=O)N[C@@H](Cc1ccccc1)C(=O)N[C@@H](Cc1ccc2ccccc2c1)C(N)=O` [SEQ ID NO:3, Ac-AKR Nal Nal GYKRKFNal-NH2] (Ac-AKR[2Nal][2Nal]GYKRKF[2Nal]-NH2) the cell viability percentage [1] was “lower than 20%”, the “ATP release, highest value (relative light unit)” value [2] was “around 10,000 RLU” and the “highest amount of cytochrome c detected in the supernatant” value [3] was “around 3.5 ng/mL”. The “plasma membrane integrity (PI entering cells)” value [4] was “can cause damage to the plasma membrane integrity”.
